Test results taken from patent US20130281467A1, “NOVEL MICROBICIDES” (SYNGENTA PARTICIPATIONS AG, priority 2010, published 2013).

Experiments:
[1] = system: Glomerella lagenarium (Colletotrichum lagenarium); test: Fungicidal activity against Glomerella lagenarium (Colletotrichum lagenarium) / liquid culture (anthracnose); assay type: cell-based; details: Colletotrichum orbiculare, 3-4 days after application, read-out: disease control (inhibition of growth, photometrically)
Outline: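 Cryostored conidia mixed into potato dextrose broth were added to test compound in DMSO. Plates were incubated at 24° C. Growth inhibition was measured photometrically 3-4 days after application.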

Gaeumannomyces graminis = test: Fungicidal activity against Gaeumannomyces graminis / liquid culture (take-all of cereals); assay type: cell-based; details: 4-5 days after application, read-out: disease control (inhibition of growth, photometrically)
Outline: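 Cryostored mycelial fragments in potato dextrose broth added to 96-well plates with test compound in DMSO. Plates kept at 24° C; growth inhibition measured photometrically 4-5 days after application.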

[2] = system: Blumeria graminis f. Sp. tritici (Erysiphe graminis f. sp. tritici); test: Fungicidal activity against Blumeria graminis f. sp. tritici / wheat / leaf disc preventative (powdery mildew on wheat); assay type: in vivo; details: foliar, wheat leaf segments, inoculated 1 day after application, compared to untreated, read-out: disease control
Outline: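 Wheat cv. Kanzler leaf segments on agar were sprayed with the formulated compound diluted in water and inoculated with powdery mildew 1 day later. Incubation was at 20 °C and 60% rh: 24 h dark, then 12 h light/12 h dark. Percent disease control versus untreated was scored 6–8 days after application.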

[3] = system: Monographella nivalis (Microdochium nivale); test: Fungicidal activity against Monographella nivalis (Microdochium nivale) / liquid culture (foot rot cereals); assay type: cell-based; details: 4-5 days after application, read-out: disease control (inhibition of growth, photometrically)
Outline: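 Conidia in potato dextrose broth added to microtiter wells holding test compound in DMSO. Incubated at 24° C.; growth inhibition read photometrically 4-5 days after application.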

[4] = system: Mycosphaerella arachidis (Cercospora arachidicola); test: Fungicidal activity against Mycosphaerella arachidis (Cercospora arachidicola) / liquid culture (early leaf spot); assay type: cell-based; details: 4-5 days after application, read-out: disease control (inhibition of growth, photometrically)
Outline: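 Cryopreserved conidia in potato dextrose broth added to compound in DMSO in microtiter plates. Incubation at 24 °C; growth inhibition read photometrically 4-5 days after application.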

Alternaria solani = test: Fungicidal activity against Alternaria solani / tomato / leaf disc (early blight); assay type: in vivo; details: foliar, tomato leaf disks, inoculated 2 days after application, compared to untreated, read-out: disease control
Protocol: Fungicidal Activity Against Alternaria solani/Tomato/Leaf Disc (Early Blight) Tomato leaf disks cv. Baby were placed on agar in multiwell plates (24-well format) and sprayed with the formulated test compound diluted in water. The leaf disks were inoculated with a spore suspension of the fungus 2 days after application. The inoculated leaf disks were incubated at 23° C./21° C.

Pyrenophora teres = test: Fungicidal activity against Pyrenophora teres / barley / leaf disc preventative (net blotch); assay type: in vivo; details: foliar, barley leaf segments, inoculated 2 days after application, compared to untreated, read-out: disease control
Outline: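 Barley leaf segments (cv. Hasso) on agar sprayed with formulated compound in water, then spore-inoculated 2 days later. Kept at 20 °C, 65% rh, 12 h light/dark; disease control versus untreated scored 5-7 days after application.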

[5] = system: Botryotinia fuckeliana (Botrytis cinerea); test: Fungicidal activity against Botryotinia fuckeliana (Botrytis cinerea) / liquid culture (gray mould); assay type: cell-based; details: 3-4 days after application, read-out: disease control (inhibition of growth, photometrically)
Outline: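 Conidia from cryogenic storage were mixed into Vogels broth and added to wells containing compound in DMSO. Plates incubated at 24 °C; growth inhibition read photometrically 3–4 days after application.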

[6] = system: Puccinia recondita f. sp. tritici; test: Fungicidal activity against Puccinia recondita f. sp. tritici / wheat / leaf disc preventative (brown rust); assay type: in vivo; details: foliar, wheat leaf segments, inoculated 1 day after application, compared to untreated, read-out: disease control
Outline: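 Wheat leaf segments (cv. Kanzler) on agar sprayed with formulated compound in water, inoculated with spore suspension 1 day later. Incubated at 19° C, 75% rh, 12 h light/12 h dark; percent disease control versus untreated scored 7-9 days after application.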

[7] = system: Phaeosphaeria nodorum (Septoria nodorum); test: Fungicidal activity against Phaeosphaeria nodorum (Septoria nodorum) / wheat / leaf disc preventative (glume blotch); assay type: in vivo; details: Parastagonospora nodorum, foliar, wheat leaf segments, inoculated 2 days after application, compared to untreated, read-out: disease control
Outline: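 Wheat cv. Kanzler leaf segments on agar, sprayed with diluted formulated compound, then spore-inoculated 2 days later. Kept at 20 °C, 75% rh, 12 h light/12 h dark; percent disease control versus untreated scored once untreated discs show disease, 5–7 days after application.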

[8] = system: Mycosphaerella graminicola (Septoria tritici); test: Fungicidal activity against Mycosphaerella graminicola (Septoria tritici) / liquid culture (Septoria blotch); assay type: cell-based; details: Zymoseptoria tritici, 4-5 days after application, read-out: disease control (inhibition of growth, photometrically)
Outline: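 Cryo-stored conidia were suspended in potato dextrose broth and added to test compound dispensed from DMSO solution. Plates were held at 24° C., and growth inhibition was measured photometrically 4-5 days after application.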

[9] = system: Thanatephorus cucumeris (Rhizoctonia solani); test: Fungicidal activity against Thanatephorus cucumeris (Rhizoctonia solani) / liquid culture (foot rot, damping-off); assay type: cell-based; details: 3-4 days after application, read-out: disease control (inhibition of growth, photometrically)
Outline: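 Fungal mycelia fragments from fresh liquid culture were mixed into potato dextrose broth and added to test compounds supplied in DMSO. Incubation was at 24° C. Growth inhibition was read photometrically 3-4 days after application.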

Row | Structure (SMILES) | inhibition at 200 ppm [1] [%] | inhibition at 200 ppm (Gaeumannomyces graminis) [%] | pest or weed control at 200 ppm [2] [%] | inhibition at 200 ppm [3] [%] | inhibition at 200 ppm [4] [%] | pest or weed control at 200 ppm (Alternaria solani) [%] | pest or weed control at 200 ppm (Pyrenophora teres) [%] | melting point [°C] | inhibition at 200 ppm [5] [%] | pest or weed control at 200 ppm [6] [%] | pest or weed control at 200 ppm [7] [%] | inhibition at 200 ppm [8] [%] | inhibition at 200 ppm [9] [%]
1 | Clc1ccccc1Cc1cccc(-c2ncc3c(n2)CCOC3)n1 [Compound 3] | ≥ 80 | ≥ 80 | ≥ 80 | ≥ 80 | ≥ 80 | ≥ 80 | ≥ 80 | 112 to 113 | ≥ 80 | ≥ 80 | ≥ 80 | ≥ 80 | ≥ 80
2 | Clc1ccc(Cc2cccc(-c3ncc4c(n3)CCOC4)n2)cc1 [Compound 5] | ≥ 80 | ≥ 80 | ≥ 80 | ≥ 80 | ≥ 80 | ≥ 80 | ≥ 80 | 104 to 106 | ≥ 80 | ≥ 80 | ≥ 80 | ≥ 80 | ≥ 80
3 | COc1ccccc1Cc1cccc(-c2ncc3c(n2)CCOC3)n1 [Compound 7] | ≥ 80 | ≥ 80 | ≥ 80 | ≥ 80 | ≥ 80 | ≥ 80 | ≥ 80 | 135 to 137 | ≥ 80 | ≥ 80 | ≥ 80 | ≥ 80 | 
4 | c1ccc(Cc2cccc(-c3ncc4c(n3)CCC3(C4)OCCO3)n2)cc1 [Compound 19] | ≥ 80 | ≥ 80 | ≥ 80 | ≥ 80 | ≥ 80 | ≥ 80 | ≥ 80 | 236 to 237 | ≥ 80 | ≥ 80 | ≥ 80 | ≥ 80 | ≥ 80
5 | COc1ccc(Cc2cccc(-c3ncc4c(n3)CCOC4)n2)cc1 [Compound 21] | ≥ 80 | ≥ 80 | ≥ 80 | ≥ 80 | ≥ 80 | ≥ 80 | ≥ 80 | 216 to 219 | ≥ 80 | ≥ 80 | ≥ 80 | ≥ 80 | ≥ 80
